Results as given in EP4800012A1, “COMPOUND ACTING AS PARP7 INHIBITOR” (Dovetree Medicines Unus, Inc., priority 2023, dated 2025).

What was measured:
PARP7 [1] = molecular target: T1, PARP7 (Homo sapiens, UniProt Q7Z3E1); assay: Inhibition of the compound on PARP7 protein activity (ADP-ribosylation, chemiluminescence); assay type: biochemical
T1 construct: purchased BPS 80527
T1 sequence (Q7Z3E1 1-657): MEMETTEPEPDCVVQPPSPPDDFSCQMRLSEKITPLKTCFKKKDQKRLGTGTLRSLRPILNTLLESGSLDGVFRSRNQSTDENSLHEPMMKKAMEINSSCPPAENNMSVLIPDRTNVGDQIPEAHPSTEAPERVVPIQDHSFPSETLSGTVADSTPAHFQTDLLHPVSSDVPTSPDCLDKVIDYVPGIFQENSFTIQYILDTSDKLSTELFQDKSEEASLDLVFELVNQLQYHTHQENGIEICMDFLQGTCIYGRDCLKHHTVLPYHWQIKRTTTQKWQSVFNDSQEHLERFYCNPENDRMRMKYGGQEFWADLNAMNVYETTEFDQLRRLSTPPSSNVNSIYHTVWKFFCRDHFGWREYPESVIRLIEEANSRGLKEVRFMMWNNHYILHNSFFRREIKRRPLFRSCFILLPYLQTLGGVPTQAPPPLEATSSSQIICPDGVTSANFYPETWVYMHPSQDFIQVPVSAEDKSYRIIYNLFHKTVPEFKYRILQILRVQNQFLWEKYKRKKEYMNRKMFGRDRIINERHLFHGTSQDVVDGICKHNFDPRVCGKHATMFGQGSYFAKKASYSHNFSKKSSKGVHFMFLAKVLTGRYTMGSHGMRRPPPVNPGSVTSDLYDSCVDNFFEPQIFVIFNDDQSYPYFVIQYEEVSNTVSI

NCI-H1373 cells = assay: Inhibition on NCI-H1373 cell proliferation (Cell-Titer-Glo); assay type: cell-based; conditions: Homo sapiens, 144 h; NCI-H1373 cells, incubation for 6 days, Cell-Titer-Glo; read-out: NCI-H1373 cell proliferation inhibition IC50
Description: The inhibitory effect of the compound on PARP7 was evaluated by testing the inhibitory effect of the compound on NCI-H1373 cell proliferation.
NCI-H1373 cells (ATCC, CRL-5866) were cultured in a complete medium, namely, a RPMI-1640 medium (Gibco, 22400089) containing 10% fetal bovine serum (Corning, 35-081-CV).
Negative control wells and positive control wells were added with 50 nL DMSO (Sigma, D2650), respectively.
In "Day 0" detection plate, NCI-H1373 cells were seeded at a density of 600 cells/well (50 µL) in a complete medium into the Day 0 test wells of a 384-well detection plate (Grenier, 781091). Then, 25 µL of Cell-Titer-Glo reagent (Promega, G7573) was added to each well, followed by centrifugation at 1000 rpm at room temperature for 1 minute and incubation at room temperature under shaded conditions for 10 min. Chemiluminescence signals were collected using an Envision (Perkin Elmer, EnVision 2105) to obtain the average value of the Day 0 test values.
In "compound detection plate", NCI-H1373 cells were seeded at a density of 600 cells/well (50 µL) in a complete medium into the negative control wells and the compound detection wells of a 384-well detection plate (Grenier, 781091), and 50 µL of cell culture medium was added to the positive control wells, followed by centrifugation at 1000 rpm at room temperature for 1 minute and placing in a cell incubator at 37°C, 5% CO2 for incubation for 6 days. […] Chemiluminescence signals were collected using an Envision (Perkin Elmer, EnVision 2105). The test values for each compound well, negative control well, and positive control well were obtained.
The proliferation inhibition ratio formula is as follows: [formula]
The average value of the negative control = the average value of the Day 6 test values of each negative control well minus the average value of the Day 0 test values
The average value of the positive control = the average value of the Day 6 test values of each positive control well
The average value of the compound test = (the Day 6 test value of compound test well 1 + the Day 6 test value of compound test well 2)/2 - the average value of the Day 0 test values

PARP7 [2] = molecular target: T1, PARP7; assay: PARP7 TR-FRET binding inhibition (displacement of probe RBN011147)
Description: The ability of the compound to substitute the probe RBN011147 (Wigle et al., 2020, Cell Chemical Biology 27, 877-887) was tested by a TR-FRET method, and IC50 was calculated to evaluate the binding ability of the compound to PARP7. […]

[3] = Histone H1 coated plate, Biotin-Labeled NAD+, 2 h at room temperature, chemiluminescence, read-out: PARP7 activity inhibition IC50
[4] = TR-FRET, Biotin-labeled probe RBN011147, read-out: PARP7 binding inhibition IC50

SMILES	IC50 (PARP7 [1]; [3]) [nM]	IC50 (NCI-H1373 cells) [nM]	IC50 (PARP7 [2]; [4]) [nM]	IC50 (PARP7 [1]) [nM]	IC50 (PARP7 [2]) [nM]	IC50 (PARP7 [1]; read-out: PARP7 activity inhibition IC50, Histone H1 coated plate, Biotin-Labeled NAD+, 2 h at room temperature, chemiluminescence) [nM]	IC50 (PARP7 [2]; read-out: PARP7 binding inhibition IC50, TR-FRET, Biotin-labeled probe RBN011147) [nM]
CC(CCNC(=O)c1cccc2c1[nH]c(=O)n2-c1ncc(C(F)(F)F)cn1)Nc1cn[nH]c(=O)c1C(F)(F)F (stereo not drawn) [Example 6]	10 to 30	> 3000	30 to 100				
CC(CCCNC(=O)c1ccc(-c2ncc(N3CCOCC3)s2)cc1)Nc1cn[nH]c(=O)c1C(F)(F)F (stereo not drawn) [Example 15]	3 to 10	> 3000	10 to 30				
CC(CCCNC(=O)c1ccc(-c2ncc(N3CC(F)C3)s2)cc1)Nc1cn[nH]c(=O)c1C(F)(F)F (stereo not drawn) [Example 16]	3 to 10	> 3000	10 to 30				
COc1cnc(-c2ccc(C(=O)NCCCC(C)Nc3cn[nH]c(=O)c3C(F)(F)F)cc2)s1 (stereo not drawn) [Example 22]	< 3	1000 to 3000	10 to 30				
CC(CCCNC(=O)c1ccc(-c2ncc(C(F)F)s2)cn1)Nc1cn[nH]c(=O)c1C#N (stereo not drawn) [Example 28]	30 to 100	> 3000	> 100				
Cc1cnc(-c2cnc(C(=O)NCCCC(C)Nc3cc[nH]c(=O)c3C(F)(F)F)cn2)s1 (stereo not drawn) [Example 30]	3 to 10	> 3000	30 to 100				
CC(CCCNC(=O)c1cnc(-c2ncc(C(F)(F)F)s2)cn1)Nc1cc[nH]c(=O)c1C(F)(F)F (stereo not drawn) [Example 31]	< 3	> 3000	10 to 30				
CC(CCCNC(=O)c1cnc(-c2ncc(C(F)F)s2)cn1)Nc1cc[nH]c(=O)c1C(F)(F)F (stereo not drawn) [Example 32]	< 3	> 3000	10 to 30				
Cc1cc(NC(C)CCCN(C)C(=O)c2cnc(-c3ncc(C(F)(F)F)cn3)cn2)c(C#N)c(=O)[nH]1 (stereo not drawn) [Example 34]	30 to 100	> 3000	> 100				
Cc1cc(NC(C)CCCNC(=O)c2cnc(-c3ncc(C(F)(F)F)cn3)cn2)c(C#N)c(=O)[nH]1 (stereo not drawn) [Example 35]		> 3000		10 to 30	30 to 100		
CC(CCCNC(=O)c1cnn(-c2ncc(C(F)(F)F)cn2)c1)Nc1cn[nH]c(=O)c1C(F)(F)F (stereo not drawn) [Example 38]	< 3	> 3000	< 10				
CC(CCCNC(=O)c1cc(-c2ncc(C(F)(F)F)cn2)on1)Nc1cn[nH]c(=O)c1C(F)(F)F (stereo not drawn) [Example 39]	< 3	300 to 1000	< 10				
CCOc1cnc(-c2ccc(C(=O)NCCCC(C)Nc3cn[nH]c(=O)c3C(F)(F)F)cc2)s1 (stereo not drawn) [Example 40]	< 3	> 3000	10 to 30				
CCCc1cnc(-c2ccc(C(=O)NCCCC(C)Nc3cn[nH]c(=O)c3C(F)(F)F)cc2)s1 (stereo not drawn) [Example 41]	< 3	300 to 1000	10 to 30				
CC#Cc1cnc(-c2ccc(C(=O)NCCCC(C)Nc3cn[nH]c(=O)c3C(F)(F)F)cc2)s1 (stereo not drawn) [Example 42]	< 3	> 3000	30 to 100				
CC(CCCNC(=O)c1ccc(-c2ncc(CC3CCCC3)s2)cc1)Nc1cn[nH]c(=O)c1C(F)(F)F (stereo not drawn) [Example 43]	< 3	< 300	< 10				
CC(CCCNC(=O)c1ccc(-c2ncc(CC3CC3)s2)cc1)Nc1cn[nH]c(=O)c1C(F)(F)F (stereo not drawn) [Example 44]	< 3	1000 to 3000	< 10				
CC(CCCNC(=O)c1ccc(-n2cccn2)nc1)Nc1cn[nH]c(=O)c1C(F)(F)F (stereo not drawn) [Example 45]	3 to 10	> 3000	10 to 30				
C[C@@H](CCCNC(=O)c1ccc(-c2nccs2)cn1)Nc1cn[nH]c(=O)c1C(F)(F)F [Example 46]		> 3000				10 to 30	10 to 30
CC(CCCNC(=O)c1ccc(-c2ncn(C)n2)cc1)Nc1cn[nH]c(=O)c1C(F)(F)F (stereo not drawn) [Example 47]	3 to 10	> 3000	10 to 30				
CC(CCCNC(=O)c1ccc(-n2cncn2)c(F)c1)Nc1cn[nH]c(=O)c1C(F)(F)F (stereo not drawn) [Example 48]	10 to 30	> 3000	30 to 100				
CC(CCCN(C)C(=O)c1cnc(-c2ncc(C(F)(F)F)cn2)cn1)Nc1cn[nH]c(=O)c1C(F)(F)F (stereo not drawn) [Example 50]	< 3	> 3000	10 to 30				
CC(CCCNC(=O)c1cnc(-c2ncc(C(F)(F)F)cn2)cn1)Oc1cn[nH]c(=O)c1C(F)(F)F (stereo not drawn) [Example 51]	< 3	< 300	30 to 100				
CC(CCCNC(=O)c1cnc(-c2ncc(C(F)(F)F)cn2)cn1)Nc1cc[nH]c(=O)c1C#N (stereo not drawn) [Example 52]	10 to 30	> 3000	30 to 100				
Cc1c(CCC(=O)Nc2ccc(-c3ncc(C(F)(F)F)cn3)cc2F)c[nH]c(=O)c1C(F)(F)F [Example 53]	10 to 30	> 3000	30 to 100				

More lines, main results first:

IC50 (PARP7 [1]; [3]) [nM]	IC50 (NCI-H1373 cells) [nM]	IC50 (PARP7 [2]; [4]) [nM]	SMILES	IC50 (PARP7 [1]) [nM]	IC50 (PARP7 [2]) [nM]	IC50 (PARP7 [1]; read-out: PARP7 activity inhibition IC50, Histone H1 coated plate, Biotin-Labeled NAD+, 2 h at room temperature, chemiluminescence) [nM]	IC50 (PARP7 [2]; read-out: PARP7 binding inhibition IC50, TR-FRET, Biotin-labeled probe RBN011147) [nM]
< 3	> 3000	< 10	CC(CCCN1C(=O)c2ccc(-c3ncc(C(F)(F)F)cn3)cc2C1=O)Nc1cn[nH]c(=O)c1C(F)(F)F (stereo not drawn) [Example 9]				
< 3	> 3000	30 to 100	Cc1c(CCC(=O)Nc2ccc(-c3ncc(C(F)(F)F)cn3)cn2)c[nH]c(=O)c1C(F)(F)F [Example 13]				
< 3	> 3000	< 10	CC(CCCNC(=O)c1ccc(-c2ncc(N3CCOCC3)cn2)cc1)Nc1cn[nH]c(=O)c1C(F)(F)F (stereo not drawn) [Example 14]				
< 3	300 to 1000	< 10	CC(CCCNC(=O)c1ccc(-c2cc(-c3cccnc3)sn2)cc1)Nc1cn[nH]c(=O)c1C(F)(F)F (stereo not drawn) [Example 18]				
< 3	300 to 1000	< 10	CC(CCCNC(=O)c1ccc(-c2ncc(C3CC3)s2)cc1)Nc1cn[nH]c(=O)c1C(F)(F)F (stereo not drawn) [Example 19]				
< 3	1000 to 3000	< 10	CC(CCCNC(=O)c1ccc(-c2ncc(N3CC(F)C3)cn2)cc1)Nc1cn[nH]c(=O)c1C(F)(F)F (stereo not drawn) [Example 20]				
< 3	1000 to 3000	< 10	COc1cnc(-c2ccc(C(=O)NCCCC(C)Nc3cn[nH]c(=O)c3C(F)(F)F)c(F)c2)s1 (stereo not drawn) [Example 21]				
< 3	300 to 1000	10 to 30	CC(CCCNC(=O)c1ccc(-c2ncc(C(F)F)s2)cn1)Nc1cn[nH]c(=O)c1C(F)(F)F (stereo not drawn) [Example 23]				
< 3	1000 to 3000	< 10	CC(CCCNC(=O)c1cnc(-c2ncc(C(F)F)s2)cn1)Nc1cn[nH]c(=O)c1C(F)(F)F (stereo not drawn) [Example 25]				
< 3	1000 to 3000	< 10	CC(CCCNC(=O)c1cnc(-c2ncc(C(F)(F)F)s2)cn1)Nc1cn[nH]c(=O)c1C(F)(F)F (stereo not drawn) [Example 26]				
< 3	> 3000	10 to 30	COc1cnc(-c2ccc(C(=O)NCCCC(C)Nc3cc[nH]c(=O)c3C(F)(F)F)c(F)c2)s1 (stereo not drawn) [Example 27]				
< 3	> 3000	10 to 30	CC(CCCNC(=O)c1ccc(-c2ncc(C(F)F)s2)cn1)Nc1cc[nH]c(=O)c1C(F)(F)F (stereo not drawn) [Example 29]				
